# Key:
# Format in all cases: cell-based, human
# LUHMES cells [1] = assay: Mitochondrial membrane potential (JC-1 probe); conditions: 24 h
# Procedure: In PLO/FN-coated 24-well microplates, cells were simultaneously incubated with 20 nM of annonacin and the selected concentrations of Nrf2-pathway activators, in glucose-reduced medium, over the course of 24 h. After that, the medium was removed and cells were washed once with warm HBSS, followed by incubation with 5 µM JC-1 solution in HBSS, for 20 min at 37 °C. For the positive control, the mitochondrial oxidative phosphorylation uncoupler, CCCP, was used at a concentration of 50 µM. After the incubation period, cells were washed with HBSS, and fresh HBSS was added to keep the cells viable during live-image acquisition. Image acquisition was done on a fluorescence microscope Leica-DFC9000GTC (Leica, Frankfurt, Germany). Environmental conditions were kept steady at 37 °C with a 5% CO2 atmosphere during the entire acquisition time. Ten to fifteen images from different fields of view, dispersed across triplicates, were acquired with 200 × magnification (20 × objective, 10 × intermediate magnification), using the same image acquisition parameters for all conditions. The fluorescence of JC-1 monomers was captured on the green channel (λ Ex/Em = 475/519 nm) and the fluorescence of JC-1 aggregates was capture on the red channel (λ Ex/Em = 555/594 nm). Quantification of FI (fluorescence intensities) of JC-1 monomeric and aggregated forms was done using the ImageJ software (http://rsb.info.nih.gov/ij/, ImageJ bundled with 64-bit Java 8). Briefly, TIFF exported images were submitted to background subtraction using the rolling ball method with a radius of 50 pixels. Channel-specific thresholds were applied to all images to define the ROI (region of interest) and FI were measured as integrated density. Data were reported as the ratio between JC-1 aggregates and monomers, obtained by dividing the FI of the JC-1 aggregated form by the FI of the monomeric form.
# LUHMES cells [2] = assay: Mitochondrial superoxide (MitoSOX / calcein AM); conditions: 48 h
# Procedure: As before, cells seeded on PLO/FN-coated 24-well microplates were treated for 48 h with 20 nM of annonacin and the selected concentrations of Nrf2-pathway activators, in glucose-reduced medium. After this period, the medium was removed, and the cells were washed once with warm HBSS before being simultaneously incubated with 0.5 µM of MitoSOX™ red (Thermo Fisher Scientific) and 1 µM of calcein AM for 30 min at 37 °C. Next, the cells were again washed with HBSS and fresh HBSS was added to maintain cell viability during live-image acquisition on a fluorescence microscope Leica-DFC9000GTC (Leica). The cells were kept under controlled environmental conditions, and similar image acquisition parameters were used for all images, as explained before. We acquired ten to fifteen images per condition, from different view fields across triplicates, with a 200 × magnification (20 × objective, 10 × intermediate magnification). Quantification of MitoSOX and calcein AM FI was performed using the ImageJ software. Briefly, TIFF exported images were submitted to background subtraction using the rolling ball method with a radius of 50 pixels. Channel-specific thresholds were applied to all images to define the ROI, and the FI were measured as integrated density and reported as arbitrary units (a. u.). The MitoSOX FI was normalized to cell viability estimated by calcein AM FI, to obtain a MitoSOX FI/calcein FI ratio. The average ratio of the different view fields per experimental condition was taken and reported as fold change relative to the control (DMSO-treated) condition.
# Nrf2 = Nrf2 nuclear translocation (cell fractionation, Western blot); conditions: 4 h treatment
# Procedure: For fractionation experiments, LUHMES were seeded on double-coated T25 flasks and submitted to pharmacological treatments. Afterwards, the medium was removed and cells were briefly washed with warm HBSS, and trypsinized for 5 min at 37 °C. The cells were pelleted at 500×g for 5 min at 4 °C, washed once with ice-cold PBS (phosphate buffered saline), and centrifuged at 500 g for 2 min at 4 °C. Nuclear protein extraction was achieved using the NE-PER™ nuclear and cytoplasmic extraction kit (Thermo Fisher Scientific), according to the manufacturer’s instructions. Briefly, the pellet was resuspended in 50 µl of CER I buffer, supplemented with Halt™ protease and phosphatase inhibitor cocktail (Thermo Fisher Scientific), and incubated on ice for 10 min, followed by the addition of 2.75 µl of CER II, and a 2 min incubation on ice after vortexing. The samples were then centrifuged at maximum speed for 10 min at 4 °C and the cytoplasmic fraction was saved. The nuclear pellet was washed with ice-cold PBS and resuspended in 25 µl of NER buffer supplemented with protease and phosphatase inhibitors, followed by 6 cycles of 10 min incubation on ice, with 15 s of vortexing between each cycle. Finally, the samples were centrifuged at maximum speed for 10 min at 4 °C and the nuclear fraction was transferred to a new tube. All protein extracts were stored long-term at − 80 °C.
# The concentrations of protein extracts were determined by BCA (bicinchoninic acid) assay, using the Pierce™ BCA protein assay kit (Thermo Fisher Scientific), according to the manufacturer’s instructions. Absorbance values were measured on a FLUOstar® Omega plate reader. For Western blot analysis, sample volumes were diluted in PBS to ensure that equal amounts of total protein were loaded. For fractionated samples, 30 µg of cytoplasmic fraction and 15 µg of nuclear fraction were applied. Samples were denatured by heating at 95 °C for 5 min on a ThermoMixer C (Eppendorf, Wesseling-Berzdorf, Germany) with 4 × Laemmli sample buffer supplemented with 10% β-ME (β-mercaptoethanol). SDS–PAGE was performed using 7.5% Criterion™ TGX™ precast midi gels in a Tris–glycine-SDS running buffer (Bio-Rad). The proteins were blotted onto PVDF membranes, using a trans-blot turbo transfer system (Bio-Rad) at 25 V for 30 min. The membranes were blocked for 1 h at RT, with 3 × Roti®-Block solution (Carl Roth, Karlsruhe, Germany) or 5% nonfat-dry milk in 0.05% TBST (Tris-buffered saline with 0.05% Tween20), in the case of the Nrf2 antibody. Membranes were incubated at 4 °C overnight under gentle shaking with the appropriate primary antibody solutions as listed in Supplementary Table S2. On the following day, the membranes were washed with TBST, and incubated with the HRP-secondary antibodies for 2 h at RT (Supplementary Table S2). After further washing, the membranes were exposed to Clarity Western ECL Substrate (Bio-Rad), or SuperSignal West Femto Maximum Sensitivity Substrate (Thermo Fisher Scientific) in the case of the Nrf2 antibody. Chemiluminescence signal was detected with an Odyssey® Fc imaging system (LI-COR Biosciences, Bad Homburg, Germany) and analyzed by Image Studio™ software (LI-COR Biosciences). Fraction purity was confirmed and signal intensity normalized to housekeeping proteins, using β-III tubulin for the cytoplasmic fraction and lamin A for the nuclear fraction. Protein expression was expressed as fold change relative to the control (DMSO-treated) condition.
# [3] = protective concentration of compound + 20 nM annonacin
# [4] = absence of annonacin, vs control
Compound,"mitochondrial membrane potential (JC-1 aggregates/monomers ratio) (LUHMES cells [1]; 20 nM annonacin alone, glucose-reduced medium)",MitoSOX fluorescence intensity (LUHMES cells [2]; 20 nM annonacin alone),MitoSOX/calcein ratio (LUHMES cells [2]; 20 nM annonacin alone),mitochondrial membrane potential (JC-1 aggregates/monomers ratio) (LUHMES cells [1]; [3]),"Nrf2 expression in the nuclear fraction, normalized to lamin A (Nrf2; [4])","Nrf2 expression in the nuclear fraction, normalized to lamin A (Nrf2; presence of 20 nM annonacin)",MitoSOX/calcein ratio (LUHMES cells [2]; [3])
CCCCCCCCCCCC[C@@H](O)[C@H]1CC[C@H]([C@H](O)CCCC[C@H](O)CCCCC[C@@H](O)CC2=CC(C)OC2=O)O1 (stereo partly drawn) [annonacin],significant mitochondrial depolarization,no major changes in MitoSOX fluorescence intensity,significantly increased,–,–,–,–
O=C1[C@H](CC[C@H](O)c2ccc(F)cc2)[C@@H](c2ccc(O)cc2)N1c1ccc(F)cc1 [ezetimibe],–,–,–,aggravated mitochondrial depolarization,no evidence of increasing the Nrf2 nuclear expression,no evidence of increasing the Nrf2 nuclear expression,to control levels
C=CC(C)(C)c1cc(/C=C/C(=O)c2ccc(O)cc2)c(OC)cc1O [licochalcone A],–,–,–,aggravated mitochondrial depolarization,significantly increased expression of Nrf2 protein in the nuclear fraction,higher expression of Nrf2 in the nuclear fraction,to levels below control
Cn1c(Nc2nc3ccc(C(F)(F)F)cc3s2)nc2cc(C(=O)NCCOCCO)ccc21 [HPP-D],–,–,–,rescue the ΔψM from annonacin-induced depolarization,significantly increased expression of Nrf2 protein in the nuclear fraction,higher expression of Nrf2 in the nuclear fraction,to control levels

# Reference: paper PMC11362529, “Exploring the neuroprotective potential of Nrf2-pathway activators against annonacin toxicity” (Scientific Reports, 2024)
